Experimental data taken from the supplement of paper PMC11208160.

Experiment: recombinant UMI read abundance after kanamycin selection (control-corrected) (log10(CPM+1)); higher = more efficient recombination; extreme values may be limits of the assay; sequences stand for … in AGTGCAGAGAAAATCGGCCAGTTTTCTCTGCCTGCAGTCCGCATGCCGTGGGACCCCTTGGGTTCTAACCTGTTGCCTAGATTTATGCAGCGGACTGCCTTTCTCCCAAAGTGATAAACCGG…AGGTTGGTTTCACT; site = the 11-nt donor
Outline: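 The measure is log10(CPM+1) for recombinant UMIs. These were PCR-amplified across the donor–target junction and sequenced after Escherichia coli carrying a donor and donor-binding-loop pair library and a target plasmid with T7-inducible IS621 bridge recombinase was plated on IPTG (0.07 mM) plus kanamycin or unselected. CPM were averaged over two replicates and scaled by control-derived factors.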
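Note: IS621 bridge recombinase in Escherichia coli cells against a fixed T5 target plasmid.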

Sequence	recombinant UMI read abundance (log10)
GGTACGTCATGGACCGGTTTTCCCGGTAATCCGTATTTGTT (site GGTGCGTCTAA)	0.00982
GGTACGTCATGGACCGGTTTTCCCGGTAATCCGTATTTGTT (site GGTTCGTCTAA)	0
GGTACGTCATGGACCGGTTTTCCCGGTAATCCGTATTTGTT (site GTTACGTCTAA)	0.0263
GGTACGTCATGGACCGGTTTTCCCGGTAATCCGTATTTGTT (site TGTACGTCTAA)	0.0329
GGTACTTCATGGACCGGTTTTCCCGGTAATCCGTATTTGAT (site GGTACTTCTAT)	0.4
GGTAGAACATGGACCGGTTTTCCCGGTAATCCGTATTTGTA (site GGTAGAACTTA)	1.39
GGTAGCGCATGGACCGGTTTTCCCGGTAATCCGTATTTGTT (site GGTAGCGCTAA)	1.5
GGTCAAACATGGACCGGTTTTCCCGGTAATCCGTATTTGTA (site GGTCAAACTTA)	0.645
GGTCAAACATGGACCGGTTTTCCCGGTAATCCGTATTTGTA (site GGTCCAACTTA)	0.0193
GGTCAAACATGGACCGGTTTTCCCGGTAATCCGTATTTGTA (site GGTCGAACTTA)	0.00424
GGTCAAACATGGACCGGTTTTCCCGGTAATCCGTATTTGTA (site GGTCTAACTTA)	0.0103
GGTCACGCATGGACCGGTTTTCCCGGTAATCCGTATTTGTC (site GGTCACGCTGA)	2.56
GGTCAGTCATGGACCGGTTTTCCCGGTAATCCGTATTTGGA (site GGTCAGTCTTC)	0.503
GGTCCAACATGGACCGGTTTTCCCGGTAATCCGTATTTGAT (site GGTCCAACTAT)	0
GGTCCAACATGGACCGGTTTTCCCGGTAATCCGTATTTGGA (site GGTCCAACTTA)	0.00455
GGTCCAACATGGACCGGTTTTCCCGGTAATCCGTATTTGGA (site GGTCCAACTTC)	0.0919
GGTCCAACATGGACCGGTTTTCCCGGTAATCCGTATTTGGA (site GGTCCAACTTG)	0.0106
GGTCCAACATGGACCGGTTTTCCCGGTAATCCGTATTTGGA (site GGTCCAACTTT)	0.00506
GGTCCAACATGGACCGGTTTTCCCGGTAATCCGTATTTGTC (site GGTCCAACTAA)	0.015
GGTCCAACATGGACCGGTTTTCCCGGTAATCCGTATTTGTC (site GGTCCAACTCA)	0.00327
GGTCCAACATGGACCGGTTTTCCCGGTAATCCGTATTTGTC (site GGTCCAACTGA)	0
GGTCCAACATGGACCGGTTTTCCCGGTAATCCGTATTTGTC (site GGTCCAACTTA)	0.035
GGTCCACCATGGACCGGTTTTCCCGGTAATCCGTATTTGTA (site GGTCCAACTTA)	0.0242

Sequence	recombinant UMI read abundance (log10)
GGTCCACCATGGACCGGTTTTCCCGGTAATCCGTATTTGTA (site GGTCCACCTTA)	0.0126
GGTCCACCATGGACCGGTTTTCCCGGTAATCCGTATTTGTA (site GGTCCAGCTTA)	0.0357
GGTCCACCATGGACCGGTTTTCCCGGTAATCCGTATTTGTA (site GGTCCATCTTA)	0.0355
GGTCCAGCATGGACCGGTTTTCCCGGTAATCCGTATTTGAA (site GGTCCAGCTTT)	0.307
GGTCCAGCATGGACCGGTTTTCCCGGTAATCCGTATTTGTA (site GGTCCAACTTA)	0
GGTCCAGCATGGACCGGTTTTCCCGGTAATCCGTATTTGTA (site GGTCCACCTTA)	0.00451
GGTCCAGCATGGACCGGTTTTCCCGGTAATCCGTATTTGTA (site GGTCCAGCTTA)	1.56
GGTCCAGCATGGACCGGTTTTCCCGGTAATCCGTATTTGTA (site GGTCCATCTTA)	0.0161
GGTCCGTCATGGACCGGTTTTCCCGGTAATCCGTATTTGTT (site GGTACGTCTAA)	0.00692
GGTCCGTCATGGACCGGTTTTCCCGGTAATCCGTATTTGTT (site GGTCCGTCTAA)	0.00423
GGTCCGTCATGGACCGGTTTTCCCGGTAATCCGTATTTGTT (site GGTGCGTCTAA)	0.0122
GGTCCGTCATGGACCGGTTTTCCCGGTAATCCGTATTTGTT (site GGTTCGTCTAA)	0.0141
GGTCGAACATGGACCGGTTTTCCCGGTAATCCGTATTTGTA (site GGTCAAACTTA)	0.0946
GGTCGAACATGGACCGGTTTTCCCGGTAATCCGTATTTGTA (site GGTCCAACTTA)	0.00781
GGTCGAACATGGACCGGTTTTCCCGGTAATCCGTATTTGTA (site GGTCGAACTTA)	0.761
GGTCGAACATGGACCGGTTTTCCCGGTAATCCGTATTTGTA (site GGTCTAACTTA)	0.00734
GGTGACCCATGGACCGGTTTTCCCGGTAATCCGTATTTGCA (site GGTGACCCTTG)	0.706
GGTGCAGCATGGACCGGTTTTCCCGGTAATCCGTATTTGGA (site GGTGCAGCTTC)	0.0152
GGTGCCACATGGACCGGTTTTCCCGGTAATCCGTATTTGGT (site GGTGCCACTAC)	0.406
GGTGCGACATGGACCGGTTTTCCCGGTAATCCGTATTTGTT (site GGTGCGACTAA)	0.345
GGTGCTACATGGACCGGTTTTCCCGGTAATCCGTATTTGGA (site GGTGCTACTTC)	0.449
GGTGGTCCATGGACCGGTTTTCCCGGTAATCCGTATTTGCC (site GGTGGTCCTGG)	0
GGTGTCCCATGGACCGGTTTTCCCGGTAATCCGTATTTGAA (site GGTGTCCCTTT)	0.0114

Sequence	recombinant UMI read abundance (log10)
GGTGTGGCATGGACCGGTTTTCCCGGTAATCCGTATTTGTT (site GGTGTGGCTAA)	0.894
GGTGTTTCATGGACCGGTTTTCCCGGTAATCCGTATTTGGT (site GGTGTTTCTAC)	0.556
GGTTAAACATGGACCGGTTTTCCCGGTAATCCGTATTTGGT (site GGTTAAACTAC)	0.137
GGTTAGGCATGGACCGGTTTTCCCGGTAATCCGTATTTGAG (site GGTTAGGCTCT)	0.952
GGTTATCCATGGACCGGTTTTCCCGGTAATCCGTATTTGCT (site GATTATCCTAG)	0
GGTTATCCATGGACCGGTTTTCCCGGTAATCCGTATTTGCT (site GCTTATCCTAG)	0.196
GGTTATCCATGGACCGGTTTTCCCGGTAATCCGTATTTGCT (site GGTTATCCTAG)	0
GGTTATCCATGGACCGGTTTTCCCGGTAATCCGTATTTGCT (site GTTTATCCTAG)	0
GGTTCGCCATGGACCGGTTTTCCCGGTAATCCGTATTTGCG (site GGTTCGCCTCG)	0
GGTTGCCCATGGACCGGTTTTCCCGGTAATCCGTATTTGAT (site GATTGCCCTAT)	0.0175
GGTTGCCCATGGACCGGTTTTCCCGGTAATCCGTATTTGAT (site GCTTGCCCTAT)	0.0066
GGTTGCCCATGGACCGGTTTTCCCGGTAATCCGTATTTGAT (site GGTTGCCCTAT)	0.0592
GGTTGCCCATGGACCGGTTTTCCCGGTAATCCGTATTTGAT (site GTTTGCCCTAT)	0.0119
GGTTTACCATGGACCGGTTTTCCCGGTAATCCGTATTTGGG (site GGTTTACCTCC)	0.0308
GTAAAAGCATGGACCGGTTTTCCCGGTAATCCGTATTTGCC (site GTAAAAGCTGG)	1.27
GTAAAGTCATGGACCGGTTTTCCCGGTAATCCGTATTTGCA (site GTAAAGTCTTG)	2.95
GTAACTCCATGGACCGGTTTTCCCGGTAATCCGTATTTGTC (site GTAACTCCTGA)	1.71
GTAAGAACATGGACCGGTTTTCCCGGTAATCCGTATTTGGC (site GTAAGAACTGC)	2.33
GTAAGAACATGGACCGGTTTTCCCGGTAATCCGTATTTGGC (site GTCAGAACTGC)	0
GTAAGAACATGGACCGGTTTTCCCGGTAATCCGTATTTGGC (site GTGAGAACTGC)	1.09
GTAAGAACATGGACCGGTTTTCCCGGTAATCCGTATTTGGC (site GTTAGAACTGC)	1.13
GTAAGCCCATGGACCGGTTTTCCCGGTAATCCGTATTTGTC (site GTAAGCCCTGA)	1.98
